Among the data in US8940754B2, “10′-fluorinated Vinca alkaloids provide enhanced biological activity against MDR cancer cells” (priority 2010, dated 2015) are IC50 values, retold here.

Like-named read-outs stand apart in the source and are kept apart here. A value given as a limit tells only on which side of the number the result lay.

Common to all, as to experiment: cells
One assay concerns L1210. The assay is classed as cell-based, mouse.
The next assay relates to HCT116. Format: cell-based, human.
For a further assay, the system named is HCT116/VM46. The assay is classed as cell-based, human.
[1] abbreviates: Mus musculus, L1210; Table 1A, C16′-modified anhydrovinblastine analogues; read-out: IC50 (nM) L1210.
[2] abbreviates: Homo sapiens, HCT-116; Table 1A, C16′-modified anhydrovinblastine analogues; read-out: IC50 (nM) HCT116.
The mark [3] stands for this setting: Homo sapiens, HCT-116/VM46; Table 1A, C16′-modified anhydrovinblastine analogues; read-out: IC50 (nM) HCT116/VM46.
Setting [4] is: Mus musculus, L1210; read-out: IC50 (nM) L1210.
Setting [5] is: Homo sapiens, HCT-116; read-out: IC50 (nM) HCT116.
[6] abbreviates: Homo sapiens, HCT-116/VM46; read-out: IC50 (nM) HCT116/VM46.
Setting [7] is: Mus musculus, L1210; Table 2B, C10′-substituted vinblastines, single evaluations; read-out: IC50 (nM) L1210.
The mark [8] stands for this setting: Homo sapiens, HCT-116; Table 2B, C10′-substituted vinblastines, single evaluations; read-out: IC50 (nM) HCT116.
[9] abbreviates: Homo sapiens, HCT-116/VM46; Table 2B, C10′-substituted vinblastines, single evaluations; read-out: IC50 (nM) HCT116/VM46.
Where [10] appears, read: Mus musculus, L1210; Table 2A, C10′-substituted anhydrovinblastines, single evaluations; read-out: IC50 (nM) L1210.
Setting [11] is: Homo sapiens, HCT-116; Table 2A, C10′-substituted anhydrovinblastines, single evaluations; read-out: IC50 (nM) HCT116.
Setting [12] is: Homo sapiens, HCT-116/VM46; Table 2A, C10′-substituted anhydrovinblastines, single evaluations; read-out: IC50 (nM) HCT116/VM46.

As to `CCOC(=O)[C@]1(c2cc3c(cc2OC)N(C)C2C(O)(C(=O)OC)[C@H](OC(C)=O)[C@]4(CC)C=CCN5CC[C@]32[C@@H]54)C[C@@H]2C=C(CC)CN(CCc3c1[nH]c1ccccc31)C2` (stereo partly drawn) [Compound 5a], the figures for the IC50 with L1210 (setting [1]), in the assay with HCT116 (setting [2]) and in the assay on HCT116/VM46 (setting [3]) were 620 nM, 640 nM and 4100 nM, respectively.

For the molecule `CCOC(=O)[C@]1(c2cc3c(cc2OC)N(C)C2C(O)(C(=O)OC)[C@H](OC(C)=O)[C@]4(CC)C=CCN5CC[C@]32[C@@H]54)C[C@H]2CN(CCc3c1[nH]c1ccccc31)C[C@](O)(CC)C2` (stereo partly drawn) [Compound 5b], the IC50 is 60 nM in the assay on L1210 (setting [4]), 70 nM in the assay on HCT116 (setting [5]) and 830 nM with HCT116/VM46 (setting [6]).

As to `CC[C@]1(O)C[C@@H]2CN(CCc3c([nH]c4ccc(SC)cc34)[C@@](C(=O)OC)(c3cc4c(cc3OC)N(C)C3C(O)(C(=O)OC)[C@H](OC(C)=O)[C@]5(CC)C=CCN6CC[C@]43[C@@H]65)C2)C1` (stereo partly drawn) [Compound 20b, 10′-thiomethylvinblastine], the IC50 in the assay with L1210 (setting [7]) came to 45 nM; in the assay with HCT116 (setting [8]) it was 35 nM; in the assay with HCT116/VM46 (setting [9]), 740 nM.

With `CCC1=C[C@@H]2CN(CCc3c([nH]c4ccccc34)[C@@](C(N)=O)(c3cc4c(cc3OC)N(C)C3C(O)(C(=O)OC)[C@H](OC(C)=O)[C@]5(CC)C=CCN6CC[C@]43[C@@H]65)C2)C1` (stereo partly drawn) [Compound 7a], the IC50 with L1210 (setting [1]), with HCT116 (setting [2]) and in the assay with HCT116/VM46 (setting [3]) was more than 10000 nM each time.

As for `CCC1=C[C@@H]2CN(CCc3c([nH]c4ccccc34)[C@@](C#N)(c3cc4c(cc3OC)N(C)C3C(O)(C(=O)OC)[C@H](OC(C)=O)[C@]5(CC)C=CCN6CC[C@]43[C@@H]65)C2)C1` (stereo partly drawn) [Compound 6a], the IC50 is 6500 nM in the assay with L1210 (setting [1]), 6100 nM in the assay with HCT116 (setting [2]) and 6800 nM in the assay on HCT116/VM46 (setting [3]).

With `CC[C@]1(O)C[C@@H]2CN(CCc3c([nH]c4ccc(Cl)cc34)[C@@](C(=O)OC)(c3cc4c(cc3OC)N(C)C3C(O)(C(=O)OC)[C@H](OC(C)=O)[C@]5(CC)C=CCN6CC[C@]43[C@@H]65)C2)C1` (stereo partly drawn) [Compound 18b, 10′-chlorovinblastine], the IC50 was determined as 6.2 nM in the assay with L1210 (setting [7]), 7.6 nM with HCT116 (setting [8]) and 720 nM with HCT116/VM46 (setting [9]).

Take `CCC1=C[C@@H]2CN(CCc3c([nH]c4ccc(Br)cc34)[C@@](C(=O)OC)(c3cc4c(cc3OC)N(C)C3C(O)(C(=O)OC)[C@H](OC(C)=O)[C@]5(CC)C=CCN6CC[C@]43[C@@H]65)C2)C1` (stereo partly drawn) [Compound 17a, 10′-bromoanhydrovinblastine]: the IC50 in the assay on L1210 (setting [10]) was found to be 65 nM; in the assay with HCT116 (setting [11]) it was 70 nM; in the assay on HCT116/VM46 (setting [12]), 860 nM.

Regarding `CCC1=C[C@@H]2CN(CCc3c([nH]c4ccccc34)[C@@](C(=O)OC)(c3cc4c(cc3OC)N(C)[C@H]3[C@@](O)(C(=O)OC)[C@H](OC(C)=O)[C@]5(CC)C=CCN6CC[C@]43[C@@H]65)C2)C1` [Compound 4a, anhydrovinblastine, reference compound], the IC50 in the assay on L1210 (Table 1A, C16′-modified anhydrovinblastine analogues; read-out: IC50 (nM) L1210) amounted to 65 nM; with L1210 (Table 2A, C10′-substituted anhydrovinblastines, single evaluations; read-out: IC50 (nM) L1210), 65 nM; with HCT116 (Table 1A, C16′-modified anhydrovinblastine analogues; read-out: IC50 (nM) HCT116) it was 75 nM; in the assay with HCT116 (Table 2A, C10′-substituted anhydrovinblastines, single evaluations; read-out: IC50 (nM) HCT116), 75 nM; with HCT116/VM46 (Table 1A, C16′-modified anhydrovinblastine analogues; read-out: IC50 (nM) HCT116/VM46), 600 nM; with HCT116/VM46 (Table 2A, C10′-substituted anhydrovinblastines, single evaluations; read-out: IC50 (nM) HCT116/VM46) it was 600 nM.

Take `CCC1=C[C@@H]2CN(CCc3c([nH]c4ccc(Cl)cc34)[C@@](C(=O)OC)(c3cc4c(cc3OC)N(C)C3C(O)(C(=O)OC)[C@H](OC(C)=O)[C@]5(CC)C=CCN6CC[C@]43[C@@H]65)C2)C1` (stereo partly drawn) [Compound 18a, 10′-chloroanhydrovinblastine]: the IC50 in the assay on L1210 (setting [10]) turned out to be 60 nM; with HCT116 (setting [11]), 70 nM; in the assay with HCT116/VM46 (setting [12]), 800 nM.

Turning to `CC[C@]1(O)C[C@@H]2CN(CCc3c([nH]c4ccc(OC)cc34)[C@@](C(=O)OC)(c3cc4c(cc3OC)N(C)C3C(O)(C(=O)OC)[C@H](OC(C)=O)[C@]5(CC)C=CCN6CC[C@]43[C@@H]65)C2)C1` (stereo partly drawn) [Compound 22b, 10′-methoxyvinblastine], the IC50 with L1210 (setting [7]) is 670 nM; in the assay on HCT116 (setting [8]), 720 nM; in the assay on HCT116/VM46 (setting [9]), more than 10000 nM.

As to `CCC1=C[C@@H]2CN(CCc3c([nH]c4ccc(C#N)cc34)[C@@](C(=O)OC)(c3cc4c(cc3OC)N(C)C3C(O)(C(=O)OC)[C@H](OC(C)=O)[C@]5(CC)C=CCN6CC[C@]43[C@@H]65)C2)C1` (stereo partly drawn) [Compound 15a, 10′-cyanoanhydrovinblastine], the IC50 in the assay on L1210 (Mus musculus, L1210, read-out: IC50 (nM) L1210) was found to be 65 nM; in the assay with HCT116 (Homo sapiens, HCT-116, read-out: IC50 (nM) HCT116) it was 70 nM; in the assay on HCT116/VM46 (Homo sapiens, HCT-116/VM46, read-out: IC50 (nM) HCT116/VM46) it was 920 nM.

As to `CC[C@]1(O)C[C@@H]2CN(CCc3c([nH]c4ccc(C)cc34)[C@@](C(=O)OC)(c3cc4c(cc3OC)N(C)C3C(O)(C(=O)OC)[C@H](OC(C)=O)[C@]5(CC)C=CCN6CC[C@]43[C@@H]65)C2)C1` (stereo partly drawn) [Compound 21b, 10′-methylvinblastine], the results for the IC50 with L1210 (setting [7]), in the assay with HCT116 (setting [8]) and in the assay with HCT116/VM46 (setting [9]) were 7.8 nM, 7.8 nM and 600 nM, respectively.

As to `CC[C@]1(O)C[C@@H]2CN(CCc3c([nH]c4ccc(I)cc34)[C@@](C(=O)OC)(c3cc4c(cc3OC)N(C)C3C(O)(C(=O)OC)[C@H](OC(C)=O)[C@]5(CC)C=CCN6CC[C@]43[C@@H]65)C2)C1` (stereo partly drawn) [Compound 16b, 10′-iodovinblastine], the IC50 in the assay on L1210 (setting [7]) was 55 nM; in the assay with HCT116 (setting [8]), 60 nM; in the assay with HCT116/VM46 (setting [9]) it was 840 nM.

For the molecule `CCC1=C[C@@H]2CN(CCc3c([nH]c4ccc(I)cc34)[C@@](C(=O)OC)(c3cc4c(cc3OC)N(C)C3C(O)(C(=O)OC)[C@H](OC(C)=O)[C@]5(CC)C=CCN6CC[C@]43[C@@H]65)C2)C1` (stereo partly drawn) [Compound 16a, 10′-iodoanhydrovinblastine], the IC50 in the assay with L1210 (setting [10]) is 620 nM; in the assay on HCT116 (setting [11]) it was 600 nM; in the assay on HCT116/VM46 (setting [12]), 1800 nM.

With `CC[C@]1(O)C[C@@H]2CN(CCc3c([nH]c4ccccc34)[C@@](C(N)=O)(c3cc4c(cc3OC)N(C)C3C(O)(C(=O)OC)[C@H](OC(C)=O)[C@]5(CC)C=CCN6CC[C@]43[C@@H]65)C2)C1` (stereo partly drawn) [Compound 7b], the IC50 in the assay on L1210 (setting [4]), with HCT116 (setting [5]) and with HCT116/VM46 (setting [6]) was more than 10000 nM each time.

For `CCC1=C[C@@H]2CN(CCc3c([nH]c4ccccc34)[C@@](C=O)(c3cc4c(cc3OC)N(C)C3C(O)(C(=O)OC)[C@H](OC(C)=O)[C@]5(CC)C=CCN6CC[C@]43[C@@H]65)C2)C1` (stereo partly drawn) [Compound 8a], the IC50 in the assay with L1210 (setting [1]) is 6300 nM; in the assay on HCT116 (setting [2]) it was 7000 nM; in the assay on HCT116/VM46 (setting [3]), more than 10000 nM.

With `CC[C@]1(O)C[C@@H]2CN(CCc3c([nH]c4ccccc34)[C@@](C#N)(c3cc4c(cc3OC)N(C)C3C(O)(C(=O)OC)[C@H](OC(C)=O)[C@]5(CC)C=CCN6CC[C@]43[C@@H]65)C2)C1` (stereo partly drawn) [Compound 6b], the IC50 with L1210 (setting [4]) was 630 nM; in the assay on HCT116 (setting [5]), 670 nM; in the assay with HCT116/VM46 (setting [6]) it was 7400 nM.

For the molecule `CCC1=C[C@@H]2CN(CCc3c([nH]c4ccc(OC)cc34)[C@@](C(=O)OC)(c3cc4c(cc3OC)N(C)C3C(O)(C(=O)OC)[C@H](OC(C)=O)[C@]5(CC)C=CCN6CC[C@]43[C@@H]65)C2)C1` (stereo partly drawn) [Compound 22a, 10′-methoxyanhydrovinblastine], the IC50 is 550 nM with L1210 (setting [10]), 640 nM in the assay with HCT116 (setting [11]) and 5500 nM in the assay on HCT116/VM46 (setting [12]).

For the molecule `CC[C@]1(O)C[C@@H]2CN(CCc3c([nH]c4ccccc34)[C@@](C(=O)OC)(c3cc4c(cc3OC)N(C)[C@H]3[C@@](O)(C(=O)OC)[C@H](OC(C)=O)[C@]5(CC)C=CCN6CC[C@]43[C@@H]65)C2)C1` [Compound 1, Vinblastine, reference compound], the IC50 in the assay on L1210 (Table 1B, C16′-modified vinblastine analogues; read-out: IC50 (nM) L1210) was found to be 6 nM; with L1210 (Table 2B, C10′-substituted vinblastines, single evaluations; read-out: IC50 (nM) L1210), 6 nM; in the assay with L1210 (Table 2C, side-by-side, multiple examinations with several independent samples; read-out: IC50 (nM) L1210) it was 6 nM; in the assay with HCT116/VM46 (Table 1B, C16′-modified vinblastine analogues; read-out: IC50 (nM) HCT116/VM46), 600 nM; with HCT116/VM46 (Table 2B, C10′-substituted vinblastines, single evaluations; read-out: IC50 (nM) HCT116/VM46), 600 nM; in the assay with HCT116/VM46 (Table 2C, side-by-side, multiple examinations with several independent samples; read-out: IC50 (nM) HCT116/VM46), 600 nM.
